Reference: PMC6225228, “Design, Synthesis and Evaluation of N-pyrazinylbenzamides as Potential Antimycobacterial Agents” (Molecules : A Journal of Synthetic Chemistry and Natural …, 2018)
Where two headings read alike, the source gives them in different places. Marks after values point to notes of the source that are not given here.

Tests used:
[1] = test system: Mycobacterium tuberculosis H37Rv (Mtb); conditions: Šula's semisynthetic medium, pH = 5.6, turbidity, cited from earlier work; for Amides MIC: first value; for Amides MIC (value in parentheses): second value in parentheses
[2] = test system: Candida albicans ATCC 44859; assay: Antifungal microdilution broth, CA; assay type: cell-based; conditions: Candida albicans, read-out: MIC CA
[3] = test system: Lichtheimia corymbifera 272; assay: Antifungal microdilution broth, LC; assay type: cell-based; conditions: read-out: MIC LC
[4] = test system: Enterococcus sp. J 14365/08; assay: Antibacterial microdilution broth, EF; assay type: cell-based; conditions: Enterococcus, read-out: MIC EF
[5] = test system: Candida krusei E28; assay: Antifungal microdilution broth, CK; assay type: cell-based; conditions: Pichia kudriavzevii, read-out: MIC CK
[6] = test system: Staphylococcus epidermidis H 6966/08; assay: Antibacterial microdilution broth, SE; assay type: cell-based; conditions: Staphylococcus epidermidis, read-out: MIC SE
[7] = test system: Escherichia coli CCM 4517; assay: Antibacterial microdilution broth, EC; assay type: cell-based; conditions: Escherichia coli, read-out: MIC EC
[8] = test system: Aspergillus fumigatus 231; assay: Antifungal microdilution broth, AF; assay type: cell-based; conditions: read-out: MIC AF
[9] = test system: Pseudomonas aeruginosa CCM 1961; assay: Antibacterial microdilution broth, PA; assay type: cell-based; conditions: Pseudomonas aeruginosa, read-out: MIC PA
[10] = test system: M. kansasii CNCTC My 235/80 (ATCC 12478); assay: Antimycobacterial microdilution MABA, M. kansasii; assay type: cell-based, Mycobacterium kansasii; conditions: Mycobacterium kansasii, ATCC12478, pH 6.6, read-out: M. kans. ATCC 12478 MIC, Middlebrook 7H9 with OADC, pH 6.6, MABA
[11] = test system: Candida tropicalis 156; assay: Antifungal microdilution broth, CT; assay type: cell-based; conditions: read-out: MIC CT
[12] = test system: Candida glabrata 20/I; assay: Antifungal microdilution broth, CG; assay type: cell-based; conditions: Nakaseomyces glabratus, 20/I, read-out: MIC CG
[13] = test system: Staphylococcus aureus H 5996/08 methicillin resistant; assay: microbe, parasite or virus in culture; assay type: cell-based; conditions: Staphylococcus aureus, MRSA, read-out: MIC MRSA
[14] = test system: Staphylococcus aureus CCM 4516/08; assay: Antibacterial microdilution broth, SA; assay type: cell-based; conditions: Staphylococcus aureus
[15] = test system: Trichosporon asahii 1188; assay: Antifungal microdilution broth, TA; assay type: cell-based; conditions: read-out: MIC TA
[16] = test system: M. avium ssp. avium CNCTC My 80/72 (ATCC 15769); assay: Antimycobacterial microdilution MABA, M. avium; assay type: cell-based, Mycobacterium avium; conditions: Mycobacterium avium, ATCC15769, pH 6.6, read-out: M. avium ATCC 15769 MIC
[17] = test system: Mycobacterium tuberculosis H37Rv CNCTC My 331/88 (ATCC 27294); assay: Antimycobacterial microdilution MABA, M. tuberculosis; assay type: cell-based; conditions: Mycobacterium tuberculosis, read-out: Mtb H37Rv ATCC 27294 MIC, Middlebrook 7H9 with OADC growth supplement, pH = 6.6, MABA
[18] = test system: Trichophyton interdigitale 445; assay: Antifungal microdilution broth, TI; assay type: cell-based; conditions: read-out: MIC TI
[19] = test system: Mycobacterium smegmatis CCM 4622 (ATCC 607); assay: Antimycobacterial microdilution, M. smegmatis; assay type: cell-based; conditions: Mycolicibacterium smegmatis, read-out: M. smeg. ATCC 607 MIC
[20] = Lichtheimia corymbifera, 272, 24 h
[21] = Lichtheimia corymbifera, 272, 48 h
[22] = Aspergillus fumigatus, 231, 24 h
[23] = Aspergillus fumigatus, 231, 48 h
[24] = CCM4516, 24 h, read-out: MIC SA, 24 h
[25] = CCM4516, 48 h, read-out: MIC SA, 48 h
[26] = CCM4516, read-out: MIC against S. aureus, time not stated
[27] = Trichosporon asahii, 1188, 24 h
[28] = Trichosporon asahii, 1188, 48 h
[29] = Trichophyton interdigitale, 445, 72 h
[30] = Trichophyton interdigitale, 445, 120 h

Row | SMILES | Amides MIC [1] | Amides MIC (value in parentheses) [1] | MIC ([2]; ATCC44859, 24 h) | MIC ([2]; ATCC44859, 48 h) | MIC [3, 20] | MIC [3, 21] | MIC ([4]; SP.J14365/08, 24 h) | MIC ([4]; SP.J14365/08, 48 h) | MIC ([5]; E28, 24 h) | MIC ([5]; E28, 48 h) | MIC ([6]; H6966/08, 24 h) | MIC ([6]; H6966/08, 48 h) | melting point | MIC ([7]; CCM4517, 24 h) | MIC ([7]; CCM4517, 48 h) | MIC [8, 22] | MIC [8, 23] | MIC ([9]; CCM1961, 72 h) | MIC ([9]; CCM1961, 120 h) | MIC [10] | further results
1 | O=C(Nc1cccc(C(F)(F)F)c1)c1cnc(Cl)cn1 [Amide R1=5-Cl R2=3-CF3] | 3.13 µg/mL | 6.25 µg/mL | – | – | – | – | – | – | – | – | – | – | – | – | – | – | – | – | – | – | –
2 | O=C(Nc1cccc(Cl)c1)c1cnc(Cl)cn1 [Amide R1=5-Cl R2=3-Cl] | 6.25 µg/mL | 3.13 µg/mL | – | – | – | – | – | – | – | – | – | – | – | – | – | – | – | – | – | – | –
3 | O=C(Nc1cccc(O)c1)c1cnc(Cl)cn1 [Amide R1=5-Cl R2=3-OH] | 6.25 ^c [18] μg/mL | – | – | – | – | – | – | – | – | – | – | – | – | – | – | – | – | – | – | – | –
4 | COc1ccccc1C(=O)Nc1cnc(Cl)cn1 [Compound 2e] | – | – | > 125 µM | > 125 µM | > 125 µM | > 125 µM | > 125 µM | > 125 µM | > 125 µM | > 125 µM | > 125 µM | > 125 µM | 141.2 to 142 °C | > 125 µM | > 125 µM | > 125 µM | > 125 µM | > 125 µM | > 125 µM | > 100 µg/mL | MIC ([11]; Candida tropicalis, 156, 24 h): > 125 µM; MIC ([11]; Candida tropicalis, 156, 48 h): > 125 µM; MIC ([12]; 24 h): > 125 µM; MIC ([12]; 48 h): > 125 µM; MIC ([13]; 24 h): > 125 µM; MIC ([13]; 48 h): > 125 µM; MIC [14, 24]: > 125 µM; MIC [14, 25]: > 125 µM; MIC [14, 26]: > 125 µM; MIC [15, 27]: > 125 µM; MIC [15, 28]: > 125 µM; MIC [16]: > 100 µg/mL; MIC [17]: > 100 µg/mL; MIC [18, 29]: > 125 µM; MIC [18, 30]: > 125 µM; MIC [19]: ≥ 500 µg/mL
5 | COc1ccc(C(=O)Nc2cnc(Cl)cn2)cc1 [Compound 2g] | – | – | > 125 µM | > 125 µM | > 125 µM | > 125 µM | > 125 µM | > 125 µM | > 125 µM | > 125 µM | > 125 µM | > 125 µM | 177.8 to 179 °C | > 125 µM | > 125 µM | > 125 µM | > 125 µM | > 125 µM | > 125 µM | > 100 µg/mL | MIC ([11]; Candida tropicalis, 156, 24 h): > 125 µM; MIC ([11]; Candida tropicalis, 156, 48 h): > 125 µM; MIC ([12]; 24 h): > 125 µM; MIC ([12]; 48 h): > 125 µM; MIC ([13]; 24 h): > 125 µM; MIC ([13]; 48 h): > 125 µM; MIC [14, 24]: > 125 µM; MIC [14, 25]: > 125 µM; MIC [14, 26]: > 125 µM; MIC [15, 27]: > 125 µM; MIC [15, 28]: > 125 µM; MIC [16]: > 100 µg/mL; MIC [17]: > 100 µg/mL; MIC [18, 29]: > 125 µM; MIC [18, 30]: > 125 µM; MIC [19]: ≥ 500 µg/mL
